Measured values: patent US7910617B2 (Sankyo Company, Limited, priority 2004, dated 2011)

How the values were obtained:
[1] = tested on: Rat Peripheral Blood Lymphocyte Count; test: Measurement of rat peripheral blood lymphocyte count (relative count and ID50) after oral administration; type: in vivo; settings: LEW rats; for Lymphocyte Count (Relative Value Based on a value of 100% for Normal Control Group) (%): blood collected 3 hours after administration, dose not given; for ID50 of rat peripheral blood lymphocyte count: dosage giving 50% inhibition rate of lymphocyte count
Protocol: Measurement of Rat Peripheral Blood Lymphocyte Count
• (1) LEW rats (males, age 5 weeks, Japan Charles River) were used in groups of 5 animals per group. • (2) Administration of Compounds
The compounds were suspended in 1% tragacanth liquid (solvent). The suspended compounds were orally administered to the rats using a gastric tube in a dose of 5 mL per kg of body weight. Furthermore, the solvent was administered instead of the suspended compounds to a normal control group. • (3) Measurement of Peripheral Blood Lymphocyte Count
Blood samples were collected from the descending vena cava under ether anesthesia 3 hours after administration of the solvent or suspended compounds, and then transferred to tubes containing EDTA.
The absolute lymphocyte counts were measured for the collected blood samples using a hematology testing device. Lymphocyte count lowering activity of the test compounds was calculated as a relative value (%) based on a value of 100% for the lymphocyte count of the normal control group.
Measurement of ID50 of Rat Peripheral Blood Lymphocyte Count (mg/kg)
Inhibition rate (%) ={1-(lymphocyte count of compound dose group/lymphocyte count of solvent dose group)}×100 The dosage of the compound that yielded a value of 50% for the inhibition rate was calculated as the ID50 value.

[2] = Rat pharmacokinetics (dosage: 1 mg/kg), blood compound concentrations; type: in vivo; settings: male, whole blood, po, LEWIS rats, 1 mg/kg directly into the stomach; for AUC(0-t): read-out: AUC (0–24 h); for half-life: read-out: T½ (converted)
Protocol: Rat Pharmacokinetics (dosage: 1 mg/kg)
• (1) LEWIS rats (males, age 6 weeks, Japan Charles River) were used after acclimating for 1 week. 1 to 3 rats were used for each compound. • (2) Administration of Compounds
The compounds were dissolved in an aqueous physiological saline solution containing 4% (w/v) sulfobutyl ether β-cyclodextrin. The rats were administered the dissolved compounds directly into the stomach using a metal gastric tube in a dose of 2 mL per kg of body weight. • (3) Measurement of Blood Compound Concentrations
Blood samples were collected at 0.1 mL/animal/collection from the jugular vein using heparin as anticoagulant under ether anesthesia at predetermined times after administering the compounds. The blood samples were promptly treated with methanol after collection, and were placed in frozen storage until the time of measurement treatment. After treating the resulting blood samples by solid phase extraction, blood compound concentrations were measured with a high-performance liquid chromatograph-quadropole mass spectrometer. Various pharmacokinetic parameters were then calculated using pharmacokinetics analysis software (Winnonlin Professional) from the resulting blood concentrations.

| Structure (SMILES) | Cmax [2] [ng/mL] | AUC(0-t) [2] [ng·h/mL] | half-life [2] [h] | Lymphocyte Count (Relative Value Based on a value of 100% for Normal Control Group) (%) [1] [%] | ID50 of rat peripheral blood lymphocyte count [1] [mg/kg] |
| --- | --- | --- | --- | --- | --- |
| CC(N)(CO)CCc1ccc(C(=O)CCCCc2ccccc2)s1 (centres unmarked) [Comparative Compound 1, reference compound] | – | – | – | 30 | – |
| Cn1c(CC[C@@](C)(N)CO)ccc1C(=O)CCCc1ccccc1 [Comparative Compound 2, reference compound] | – | – | – | 31 | 0.78 |
| Cc1ccc(CCCC(=O)c2ccc(CC[C@@](C)(N)CO)n2C)cc1C.Cl [Example 2] | – | – | – | – | 0.42 |
| COc1ccc(CCCC(=O)c2ccc(CC[C@@](C)(N)CO)n2C)cc1C.Cl [Example 11, (2R)-2-Amino-2-methyl-4-{1-methyl-5-[4-(3-methyl-4-methoxyphenyl)butanoyl]pyrrol-2-yl}butan-1-ol hydrochloride] | 5.38 | 71.7 | 6.04 | 11 | 0.39 |

Further lines, with some results ahead:

| Cmax [2] [ng/mL] | AUC(0-t) [2] [ng·h/mL] | half-life [2] [h] | Structure (SMILES) | Lymphocyte Count (Relative Value Based on a value of 100% for Normal Control Group) (%) [1] [%] | ID50 of rat peripheral blood lymphocyte count [1] [mg/kg] |
| --- | --- | --- | --- | --- | --- |
| 19.4 | 288 | 15.6 | Cc1ccc(CCCC(=O)c2ccc(CC[C@@](C)(N)CO)n2C)cc1.Cl [Example 1, (2R) -2-Amino-2-methyl-4-{1-methyl-5-[4-(4-methylphenyl)butanoyl]pyrrol-2-yl}butan-1-ol hydrochloride] | 8 | 0.21 |
| 8.4 | 123 | 8.5 | Cc1ccc(CCCC(=O)c2ccc(CC[C@@](C)(N)CO)n2C)cc1C.Cl [Example 2, (2R)-2-Amino-2-methyl-4-{1-methyl-5-[4-(3,4-dimethylphenyl)butanoyl]pyrrol-2-yl}butan-1-ol hydrochloride] | – | – |
